Molecular target: α-glucosidase
Test: pNPG hydrolysis absorbance assay at […] nm, pH […] °C
Format: biochemical

IC50: 1260 ± 700 nM
SMILES: COc1cc2c(cc1O)CCN[C@]21CS[C@@H]2c3c(OC(C)=O)c(C)c4c(c3[C@H](COC1=O)N1[C@@H]2[C@H]2c3c(cc(C)c(OC)c3O)C[C@@H]([C@@H]1O)N2C)OCO4 [Trabectedin]
